Source: patent publication US12338253B2, “Nitrogen-containing polycyclic fused ring compound, pharmaceutical composition thereof, preparation method therefor and use thereof” (APPLIED PHARMACEUTICAL SCIENCE, INC., priority 2019, dated 2025)

Tests used:
[1] = molecular target: RET wt (Homo sapiens (Human), UniProt P07949); test: HTRF kinase activity test, RET wt; assay type: biochemical; conditions: for IC50: HTRF KinEASE-TK; for inhibitory activity on RET wt compared with cabozantinib: comparison in words
[2] = molecular target: RET V804M (Homo sapiens (Human), UniProt P07949, V804M); test: HTRF kinase activity test, RET V804M; assay type: biochemical; conditions: for IC50: HTRF KinEASE-TK; for inhibitory activity on RET V804M compared with cabozantinib: comparison in words
[3] = tested on: TT Cell; test: TT cell activity test (CelltiterGlo, 72 h); assay type: cell-based, human; conditions: for IC50: Homo sapiens, TT cell line, 72 h, CTG; for inhibitory activity on TT cells compared with cabozantinib: comparison in words
Protocol: 2.3 Data Processing % Inhibition (inhibition rate)=100*(HC−test compound well reading)/(HC−LC) • High control (HC, reading control without inhibition): 0.5% DMSO • Low control (LC, control with compound inhibition): 1 μM CEP-32496
The IC50 values were calculated using GraphPad Prism 6 software. Y=Bottom+(Top−Bottom)/(1+10^((Log IC50−X)*HillSlope)); • X: log of cpd concentration; • Y: % inhibition; • Top and Bottom: plateaus in same units as Y; • Log IC50: same log units as X; and • HillSlope: slope factor The Cell Results are Shown in Table 5: […]

[4] = molecular target: RET G810R (Homo sapiens (Human), UniProt P07949, G810R); test: HTRF kinase activity test, RET G810R; assay type: biochemical; conditions: for IC50: HTRF KinEASE-TK; for inhibitory activity on RET G810R compared with cabozantinib and selpercatinib (LOXO-292): comparison in words
[5] = tested on: TT cell human medullary thyroid carcinoma xenograft model; test: Pharmacodynamic test on TT cell human medullary thyroid carcinoma xenograft model; assay type: in vivo, mice; conditions: 10 mg/kg, oral, twice a day, 28 consecutive days
Protocol: TT tumor cells were cultured in F12K medium containing inactivated 10% fetal bovine serum, 100 U/mL penicillin, 100 μg/mL streptomycin and 2 mM glutamine in an incubator at 37° C. and 5% CO2. The cells were cultured at a starting concentration of 1×10^6 cells/mL, and divided and transferred to flasks for sub-culture every 3 to 4 days when they were overgrown. The tumor cells in the logarithmic growth phase were used for tumor inoculation in vivo.
The TT tumor cells resuspended in serum-free F12K medium at a concentration of 1×10^7 cells+gel/100 μL were inoculated subcutaneously into the right flank of experimental animals. When the tumor grew to about 224 mm^3, the compounds were administered in groups, with 6 animals in each group.
The mice were orally administered with the test compound twice a day for 28 consecutive days.
Tumor volume: the long and short diameters of the tumor were measured using a vernier caliper. The volume was calculated by the formula: volume=0.5×long diameter×short diameter^2. Animals were required to have their body weight and tumor size measured twice a week during the administration.
Reaction of animals after the administration: the experimental animals were weighed while measuring the tumors. The relationship between the change in the animal weight and the time of administration was recorded. At the same time, the survival and health of the mice, such as animal activity, feeding and other general states during the administration were observed.
Relative tumor proliferation rate T/C (%)=TRTV/CRTV×100% (TRTV: treatment group RTV; CRTV: negative control group RTV), where the relative tumor volume (RTV) is calculated as: RTV=Vt/V0, where V0 is the tumor volume measured at the time of group administration (that is, day 1 of the administration), and Vt is the tumor volume at each measurement. Tumor growth inhibition rate TGI (%)=(1−T/C)×100%.

[6] = tested on: Ba/F3 cell KIF5B-RET-V804M fusion xenograft model; test: Pharmacodynamic test on Ba/F3 cell KIF5B-RET-V804M fusion xenograft model; assay type: in vivo, BALB/c nude mice; conditions: 10 mg/kg; for Tumor growth inhibition rate: oral, twice a day, end of the control experiment (day 8 of the administration); for tumor volume compared with the selpercatinib group: p<0.05

Chain of RET wt (P07949 29-1114): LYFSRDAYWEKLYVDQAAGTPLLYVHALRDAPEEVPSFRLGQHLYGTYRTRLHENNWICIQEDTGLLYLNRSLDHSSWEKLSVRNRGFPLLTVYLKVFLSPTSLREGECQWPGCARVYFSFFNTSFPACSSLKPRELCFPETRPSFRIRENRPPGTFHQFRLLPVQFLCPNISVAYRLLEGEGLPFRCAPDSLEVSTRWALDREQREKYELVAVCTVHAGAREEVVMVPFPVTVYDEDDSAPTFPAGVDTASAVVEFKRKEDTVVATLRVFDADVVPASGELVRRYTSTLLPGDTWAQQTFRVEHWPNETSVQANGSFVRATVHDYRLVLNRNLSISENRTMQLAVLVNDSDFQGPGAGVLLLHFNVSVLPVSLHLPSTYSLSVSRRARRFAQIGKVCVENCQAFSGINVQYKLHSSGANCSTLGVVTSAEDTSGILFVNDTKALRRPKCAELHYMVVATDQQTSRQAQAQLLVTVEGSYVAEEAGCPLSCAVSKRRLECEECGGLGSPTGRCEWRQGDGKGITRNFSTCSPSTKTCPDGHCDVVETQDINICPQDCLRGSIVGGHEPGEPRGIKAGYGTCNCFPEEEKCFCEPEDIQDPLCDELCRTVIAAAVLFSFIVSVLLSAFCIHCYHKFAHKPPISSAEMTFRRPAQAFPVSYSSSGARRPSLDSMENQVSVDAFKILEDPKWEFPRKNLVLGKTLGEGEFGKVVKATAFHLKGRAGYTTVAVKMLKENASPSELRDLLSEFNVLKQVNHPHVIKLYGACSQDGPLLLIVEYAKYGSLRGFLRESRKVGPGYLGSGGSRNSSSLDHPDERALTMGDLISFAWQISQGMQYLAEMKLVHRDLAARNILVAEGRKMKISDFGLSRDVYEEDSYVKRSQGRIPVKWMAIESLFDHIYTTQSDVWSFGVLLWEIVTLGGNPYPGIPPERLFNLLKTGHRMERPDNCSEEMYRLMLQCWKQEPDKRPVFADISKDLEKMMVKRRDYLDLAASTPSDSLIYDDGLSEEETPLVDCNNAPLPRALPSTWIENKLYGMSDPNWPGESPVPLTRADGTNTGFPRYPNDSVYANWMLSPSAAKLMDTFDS
Chain of RET V804M (P07949 29-1114 V804M): as the sequence (P07949 29-1114) above, with V776M counted along it
Chain of RET G810R (P07949 29-1114 G810R): as the sequence (P07949 29-1114) above, with G782R counted along it

Structure (SMILES)	IC50 [1]	inhibitory activity on RET wt compared with cabozantinib [1]	IC50 [2]	inhibitory activity on RET V804M compared with cabozantinib [2]	IC50 [3]	IC50 [4]	inhibitory activity on RET G810R compared with cabozantinib and selpercatinib (LOXO-292) [4]	inhibitory activity on TT cells compared with cabozantinib [3]	Tumor growth inhibition rate TGI [5]	Tumor growth inhibition rate [6]	tumor volume compared with the selpercatinib group ([6]; day 8 of the administration)	tumor volume compared with the selpercatinib group ([6]; end of the experiment (day 14 of the administration))
COCCOc1cc(-c2ccc(N3CC4CC(C3)N4Cc3ccc(OC)nc3)nc2)c2c3c(N)n[nH]c3nn2c1 [Compound 1, 6-(2-methoxyethoxy)-4-(6-(6-((6-methoxypyridin-3-yl)methyl)-3,6-diazabicyclo[3.3.1]heptan-3-yl)pyridin-3-yl)-1H-pyrazolo[3′,4′:3,4]pyrazolo[1,5-a]pyridin-3-amine]	4.1 nM	significantly better than that of cabozantinib	2.9 nM	significantly better than that of cabozantinib	319 nM	–	–	–	–	–	–	–
COCCOc1cc(-c2ccc(N3CC4CC(C3)N4Cc3ccc(OC)nc3)nc2)c2c3cn[nH]c3nn2c1 [Compound 7, 6-(2-methoxyethoxy)-4-(6-(6-((6-methoxypyridin-3-yl)methyl)-3,6-diazabicyclo[3.3.1]heptan-3-yl)pyridin-3-yl)-1H-pyrazolo[3′,4′:3,4]pyrazolo[1,5-a]pyridine]	0.1 nM	significantly better than that of cabozantinib	0.1 nM	significantly better than that of cabozantinib	2.5 nM	2.7 nM	significantly better than that of cabozantinib and selpercatinib (LOXO-292)	significantly better than that of cabozantinib	–	–	–	–
CCOc1cc(-c2ccc(N3CC4CC(C3)N4Cc3ccc(OC)nc3)nc2)c2c3cn[nH]c3nn2c1 [Compound 9, 6-ethoxy-4-(6-(6-((6-methoxypyridin-3-yl)methyl)-3,6-diazabicyclo[3.3.1]heptan-3-yl)pyridin-3-yl)-1H-pyrazolo[3′,4′:3,4]pyrazolo[1,5-a]pyridine]	0.2 nM	significantly better than that of cabozantinib	0.1 nM	significantly better than that of cabozantinib	5.5 nM	1.9 nM	significantly better than that of cabozantinib and selpercatinib (LOXO-292)	significantly better than that of cabozantinib	88.5%	94%	significantly lower than that of the selpercatinib group	significantly lower than that of the selpercatinib group
COc1ccc(CN2C3CC2CN(c2ccc(-c4cc(OCCCF)cn5nc6[nH]ncc6c45)cn2)C3)cn1 [Compound 12, 6-(3-fluoropropoxy)-4-(6-(6-((6-methoxypyridin-3-yl)methyl)-3,6-diazabicyclo[3.3.1]heptan-3-yl)pyridin-3-yl)-1H-pyrazolo[3′,4′:3,4]pyrazolo[1,5-a]pyridine]	0.1 nM	significantly better than that of cabozantinib	0.1 nM	significantly better than that of cabozantinib	1.5 nM	3.9 nM	significantly better than that of cabozantinib and selpercatinib (LOXO-292)	significantly better than that of cabozantinib	–	–	–	–
COc1ccc(CN2C3CC2CN(c2ccc(-c4cc(OCCOC(F)F)cn5nc6[nH]ncc6c45)cn2)C3)cn1 [Compound 27, 6-(2-(difluoromethoxy)ethoxy)-4-(6-(6-((6-methoxypyridin-3-yl)methyl)-3,6-diazabicyclo[3.3.1]heptan-3-yl)pyridin-3-yl)-1H-pyrazolo[3′,4′:3,4]pyrazolo[1,5-a]pyridine]	0.1 nM	significantly better than that of cabozantinib	0.1 nM	significantly better than that of cabozantinib	27.9 nM	4.8 nM	significantly better than that of cabozantinib and selpercatinib (LOXO-292)	significantly better than that of cabozantinib	–	–	–	–
COc1cc(-c2ccc(N3CC4CC(C3)N4Cc3ccc(OC)nc3)nc2)c2c3cn[nH]c3nn2c1 [Compound 36, 6-methoxy-4-(6-(6-((6-methoxypyridin-3-yl)methyl)-3,6-diazabicyclo[3.3.1]heptan-3-yl)pyridin-3-yl)-1H-pyrazolo[3′,4′:3,4]pyrazolo[1,5-a]pyridine]	0.2 nM	significantly better than that of cabozantinib	0.1 nM	significantly better than that of cabozantinib	10.7 nM	1.7 nM	significantly better than that of cabozantinib and selpercatinib (LOXO-292)	significantly better than that of cabozantinib	–	–	–	–
CCCOc1cc(-c2ccc(N3CC4CC(C3)N4Cc3ccc(OC)nc3)nc2)c2c3cn[nH]c3nn2c1 [Compound 38, 4-(6-(6-((6-methoxypyridin-3-yl)methyl)-3,6-diazabicyclo[3.3.1]heptan-3-yl)pyridin-3-yl)-6-propoxy-1H-pyrazolo[3′,4′:3,4]pyrazolo[1,5-a]pyridine]	0.2 nM	significantly better than that of cabozantinib	0.1 nM	significantly better than that of cabozantinib	10.6 nM	2.9 nM	significantly better than that of cabozantinib and selpercatinib (LOXO-292)	significantly better than that of cabozantinib	–	–	–	–
COc1ccc(CN2C3CC2CN(c2ccc(-c4cc(OCC(C)C)cn5nc6[nH]ncc6c45)cn2)C3)cn1 [Compound 39, 6-isobutoxy-4-(6-(6-((6-methoxypyridin-3-yl)methyl)-3,6-diazabicyclo[3.3.1]heptan-3-yl)pyridin-3-yl)-1H-pyrazolo[3′,4′:3,4]pyrazolo[1,5-a]pyridine]	0.4 nM	significantly better than that of cabozantinib	0.3 nM	significantly better than that of cabozantinib	12.3 nM	30.5 nM	significantly better than that of cabozantinib and selpercatinib (LOXO-292)	significantly better than that of cabozantinib	–	–	–	–
COc1ccc(CN2C3CC2CN(c2ccc(-c4cc(OCC(C)(C)O)cn5ncc(C#N)c45)cn2)C3)cn1 [Selpercatinib(LOXO-292), Selpercatinib, reference compound]	–	–	–	–	–	–	–	–	–	49%	–	–
